Here are results for one molecule from ChEMBL document CHEMBL5608174, “Synthesis and biological evaluation of 4-phenyl-5-quinolinyl substituted isoxazole analogues as potent cytotoxic and tubulin polymerization inhibitors against ESCC” (Eur J Med Chem, 2024).

For assay [1], the system named is KYSE-70 cell line. The assay is described as follows: Induction of apoptosis in human KYSE-70 cells assessed as late apoptotic cells at 5 nmol/L incubated for 48 hrs by Annexin V-FITC/PI staining based flow cytometry analysis (reference value: 3.01%). It counts as functional.
The test system of assay [2] is KYSE-30. Briefly: Induction of apoptosis in human KYSE-30 cells assessed as necrotic cells at 20 nmol/L incubated for 48 hrs by Annexin V-FITC/PI staining based flow cytometry analysis (reference value: 1.59 %). The assay is classed as functional.
Assay [3] has as its system KYSE-30. The assay is described as follows: Induction of apoptosis in human KYSE-30 cells assessed as viable cells at 10 nmol/L incubated for 48 hrs by Annexin V-FITC/PI staining based flow cytometry analysis (reference value: 88.76 %). The assay is classed as functional. As to conditions: read-out: Activity.
Assay [4] concerns KYSE-30. The assay is described as follows: cells. As to conditions: Homo sapiens, KYSE-30, 48 h.
Description: Antiproliferative activity against human KYSE-30 cells assessed as inhibition of cell proliferation incubated for 48 hrs by MTT assay
Assay [5] deals with KYSE-70 cell line. Briefly: Induction of apoptosis in human KYSE-70 cells assessed as late apoptotic cells at 10 nmol/L incubated for 48 hrs by Annexin V-FITC/PI staining based flow cytometry analysis (reference value: 3.01%). It counts as functional.

For `COc1ccc(-c2cnoc2-c2cc(C)nc3ccccc23)cc1`, the figures for the Activity in the assay on KYSE-70 cell line [1], with KYSE-30 [2] and in the assay on KYSE-70 cell line [5] were 6.21%, 3.2% and 14.3%, respectively. Moreover, the viability at 0.01 µM with KYSE-30 [3] is 37.5%. The molecule also returned an IC50 in the assay with KYSE-30 [4] of 13 nM.
